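GI50 is the concentration that inhibits growth by half. TGI is the concentration that stops growth completely.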
Key:
Assay in all cases: NCI anticancer screen, dose series, 384-well format
[1] = tested on: DU-145 prostate
[2] = tested on: NCI-H226 lung
[3] = tested on: SK-OV-3 ovarian
[4] = tested on: OVCAR-4 ovarian
[5] = tested on: NCI-H322M lung
[6] = tested on: RXF 393 renal
[7] = tested on: K-562 leukemia
[8] = tested on: HS 578T breast
[9] = tested on: HT29 colon
[10] = tested on: TK-10 renal
[11] = tested on: MOLT-4 leukemia
[12] = tested on: MCF7 breast
[13] = tested on: MALME-3M melanoma
[14] = tested on: NCI/ADR-RES ovarian
[15] = tested on: HOP-62 NSCLC
[16] = tested on: SF-268 CNS
[17] = tested on: U251 glioblastoma
[18] = tested on: IGROV1 ovarian
[19] = tested on: ACHN renal
[20] = tested on: M14 melanoma
[21] = tested on: T-47D breast
[22] = tested on: A549 NSCLC
[23] = tested on: UACC-257 melanoma
[24] = tested on: A498 renal
[25] = tested on: HOP-92 NSCLC
[26] = tested on: SW-620 colon
[27] = tested on: UO-31 renal
[28] = tested on: KM12 colon
[29] = tested on: BT-549 breast
[30] = tested on: UACC-62 melanoma
[31] = tested on: OVCAR-3 ovarian
[32] = tested on: MDA-MB-435 melanoma
[33] = tested on: SN12C renal
[34] = tested on: HCT-15 colon
[35] = tested on: HCC-2998 colon
[36] = tested on: CAKI-1 renal
[37] = tested on: SR leukemia
[38] = tested on: CCRF-CEM leukemia
[39] = tested on: NCI-H522 lung
[40] = tested on: SF-539 CNS
[41] = tested on: SNB-19 CNS
[42] = tested on: 786-0 renal
[43] = tested on: SK-MEL-28 melanoma
[44] = tested on: HCT-116 colon
[45] = tested on: MDA-MB-231 breast
[46] = tested on: PC-3 prostate
[47] = tested on: RPMI-8226 leukemia
[48] = tested on: HL-60(TB) leukemia
[49] = tested on: SNB-75 CNS
[50] = tested on: COLO 205 colon
[51] = tested on: EKVX NSCLC
[52] = tested on: NCI-H460 NSCLC
[53] = tested on: SK-MEL-5 melanoma
[54] = tested on: LOX IMVI melanoma
[55] = tested on: MDA-MB-468 breast
[56] = tested on: NCI-H23 lung
[57] = tested on: SF-295 CNS
[58] = tested on: OVCAR-8 ovarian

## Cc1nnc(C[C@@H]2C=C(c3ccc(Cl)cc3)c3ccccc3-n3c(C)nnc32)o1
[1]
  GI50: 5.28 µM
  TGI: 43 µM
[2]
  GI50: 0.294 µM
  TGI: 17.4 µM
[3]
  GI50: 0.393 µM
  TGI: 15.3 µM
[4]
  GI50: 0.447 µM
  TGI: 4.91 µM
[5]
  GI50: 0.492 µM
  TGI: 37.6 µM
[6]
  GI50: 2.6 µM
  TGI: 18.3 µM
[7]
  GI50: 0.377 µM
  TGI: 15.4 µM
[8]
  GI50: 0.0882 µM
  TGI: 1.4 µM
[9]
  GI50: 0.267 µM
  TGI: 14.5 µM
[10]
  GI50: 0.29 µM
  TGI: 13.4 µM
[11]
  GI50: 0.321 µM
  TGI: 10.2 µM
[12]
  GI50: 0.087 µM
  TGI: 21.4 µM
[13]
  GI50: 0.382 µM
  TGI: 19.3 µM
[14]
  GI50: 1.49 µM
  TGI: 12.5 µM
[15]
  GI50: 0.316 µM
  TGI: 16.2 µM
[16]
  GI50: 3.22 µM
  TGI: 24 µM
[17]
  GI50: 3.89 µM
  TGI: 25 µM
[18]
  GI50: 0.631 µM
  TGI: 15.2 µM
[19]
  GI50: 1.96 µM
  TGI: 56.8 µM
[20]
  GI50: 0.935 µM
  TGI: 38.8 µM
[21]
  GI50: 4.96 µM
  TGI: 57.9 µM
[22]
  GI50: 0.989 µM
  TGI: 26.4 µM
[23]
  GI50: 7.05 µM
  TGI: 27.3 µM
[24]
  GI50: 0.783 µM
  TGI: 16.3 µM
[25]
  GI50: 0.595 µM
  TGI: 45 µM
[26]
  GI50: 10.4 µM
  TGI: 22.7 µM
[27]
  GI50: 0.676 µM
  TGI: > 100 µM
[28]
  GI50: 1.69 µM
  TGI: 20.7 µM
[29]
  GI50: 0.238 µM
  TGI: 10 µM
[30]
  GI50: 0.076 µM
  TGI: 12.2 µM
[31]
  GI50: 0.379 µM
  TGI: 12.9 µM
[32]
  GI50: 2.13 µM
  TGI: 17.1 µM
[33]
  GI50: 12.5 µM
  TGI: 41.1 µM
[34]
  GI50: 0.283 µM
  TGI: 10.4 µM
[35]
  GI50: 0.285 µM
  TGI: 2.46 µM
[36]
  GI50: 0.0908 µM
  TGI: 13.5 µM
[37]
  GI50: 0.0585 µM
  TGI: 0.371 µM
[38]
  GI50: 0.357 µM
  TGI: 12.5 µM
[39]
  GI50: 0.25 µM
  TGI: 2.95 µM
[40]
  GI50: 1.65 µM
  TGI: 24.5 µM
[41]
  GI50: 2.55 µM
  TGI: 31.6 µM
[42]
  GI50: 0.424 µM
  TGI: 20.8 µM
[43]
  GI50: 0.987 µM
  TGI: 36.7 µM
[44]
  GI50: 0.453 µM
  TGI: 17.9 µM
[45]
  GI50: 0.39 µM
  TGI: > 100 µM
[46]
  GI50: 0.996 µM
  TGI: 33.2 µM
[47]
  GI50: 0.059 µM
  TGI: 0.351 µM
[48]
  GI50: 0.0346 µM
  TGI: 0.144 µM
[49]
  GI50: 0.965 µM
  TGI: > 100 µM
[50]
  GI50: 0.487 µM
  TGI: 17.2 µM
[51]
  GI50: 17.5 µM
  TGI: 66.8 µM
[52]
  GI50: 1.34 µM
  TGI: 18.7 µM
[53]
  GI50: 0.695 µM
  TGI: 17.7 µM
[54]
  GI50: 0.192 µM
  TGI: 0.469 µM
[55]
  GI50: 1.5 µM
  TGI: 16.4 µM
[56]
  GI50: 0.545 µM
  TGI: 12.9 µM
[57]
  GI50: 4.52 µM
  TGI: 32.6 µM
[58]
  GI50: 0.246 µM
  TGI: 3.1 µM

— PubChem BioAssay (NCI)
